Consider one molecule from publication PMC6128908, “Potent PDZ-Domain PICK1 Inhibitors that Modulate Amyloid Beta-Mediated Synaptic Dysfunction” (Scientific Reports, 2018).

The structures appear in SMILES notation.

Series [1] relates to CA1 pyramidal neurons. Nature of the series: Long term depression, whole cell recording in hippocampal slices. The format is cell-based. To be noted: 4 µM internally, low frequency stimulation, wild-type mice hippocampal slices. As to the method:
Adult mice aged 8 to 9 weeks were decapitated using a guillotine and sliced at the first cervical vertebra. A cut was made through the skin in the middle of the scalp and the skull plate. The skull plate was separated and the brain was removed, and immediately submerged in iced-cold oxygenated Dissection Buffer (211 mM Sucrose, 2.6 mM KCl, 26 mM NaHCO3, 1.25 mM NaH2PO4, 5 mM MgCl2, 0.5 mM CaCl2, and 10 mM glucose) for 2 minutes. The brain was placed on an ice-cold cutting station and the brain cut along the longitudinal cerebral fissure to separate the two hemispheres. Hemispheres were placed in iced-cold oxygenated Dissection Buffer andand cerebellum was pulled away to reveal the hippocampus. The two hemispheres were arranged so that the hippocampi faced each other like two columns and the whole structure was glued onto a mounting plate, and slices were sectioned at 400 µm thickness and transferred to a holding chamber with oxygenated Recovery Buffer (124 mM NaCl, 3 mM KCl, 26 mM NaHCO3, 1.25 mM NaH2PO4, 2 mM MgSO4, 4 mM CaCl2, 10 mM glucose, and 1 mM kynurenic acid). Slices were allowed to recover for 1–1.5 h at room temperature before electrophysiology experiments. Whole-Cell current-clamp measurements on hippocampal CA1 pyramidal neurons were carried out at 32 to 33 °C. The cells were held at −60 mV potential and schaffer collateral fibers were stimulated. […]

A short description of series [2]: Solubility comparison. The format is physicochemical. To be noted: compared with compound 1z.
The target of series [3] is PICK1 (Homo sapiens, UniProt Q9NRD5). Nature of the series: PICK1 competition (displacement) assay with tracer BIO424.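 Note: in vitro displacement assay with baculovirus-expressed, truncated dimeric PICK1 missing its final 59 residues.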 To be noted: IC50, BIO424 as tracer.
Chain of PICK1 (Q9NRD5 1-356): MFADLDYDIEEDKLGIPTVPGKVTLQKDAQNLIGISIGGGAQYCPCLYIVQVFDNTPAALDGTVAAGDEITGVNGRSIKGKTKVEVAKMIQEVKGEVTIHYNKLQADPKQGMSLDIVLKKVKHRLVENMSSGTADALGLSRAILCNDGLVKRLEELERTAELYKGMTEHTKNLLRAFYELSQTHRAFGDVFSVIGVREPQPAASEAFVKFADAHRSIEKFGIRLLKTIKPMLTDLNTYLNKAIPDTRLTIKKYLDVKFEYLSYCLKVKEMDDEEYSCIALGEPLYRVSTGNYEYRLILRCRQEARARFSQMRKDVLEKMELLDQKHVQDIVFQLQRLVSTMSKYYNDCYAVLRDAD
Protocol: Fluorescence polarization (FP) and competition binding assays were used to determine PDZ binding affinities and selectivity of compounds as described in Alfonso et al.[20]. Briefly, a fixed concentration (5 nM) of Fluorescein isothiocyanate-labeled peptides comprising the C-terminal amino acids of GluA2 (875–883) and N-methyl-D-aspartate receptor subunit 2B (1474–1482) was used. Binding FP assays were carried out using increasing concentrations of recombinant full-length PICK1, postsynaptic density 95 (PSD95) PDZ 1–2, or Shank3 PDZ, and normalized by subtracting the tracer-only background.
Two recombinant PICK1 constructs were used in this study. […] A truncated, dimeric form of PICK1 lacking the last 59 residues was expressed in baculovirus and purified to homogeneity for use in the in vitro displacement assay. In general, both proteins were purified by Nickel chromatograpy followed by size exclusion chromatography.

By IC50 is commonly meant the concentration needed to halve the response being measured. As to `CC(c1ccccc1C(F)(F)F)N1CCC(C(=O)N[C@@H](CC2CC2)C(=O)O)(c2ccc(Br)cc2)CC1` (stereo partly drawn) [1r], in series [1], the “induction of long term depression (LTD)” value was “LTD was not induced”. The solubility result in series [2] is given as “better than compound 1z”. The same molecule displayed an IC50 in series [3] of 1230 nM.
